Assay results reported in patent US11708360B2, “N-substituted-dioxocyclobutenylamino-3-hydroxy-picolinamides useful as CCR6 inhibitors” (Pfizer Inc., priority 2018, dated 2023).

Key:
CCR6 = target: T1, CCR6 (Homo sapiens, UniProt P51684); assay: CCR6+ T Cell Chemotaxis Assay; format: cell-based; conditions: for IC50: Table 11, human CD4+CCR6+CXCR3- T cells, CCL20 0.5 nM in bottom chamber, 1 h at 37° C., read-out: IC50; for T Cell Chemotaxis Selectivity: Table 13, T cell chemotaxis compared to neutrophil chemotaxis, NS = not selective for T cell chemotaxis compared to neutrophil chemotaxis
T1 construct: Human CD4+CCR6+CXCR3-T cells were isolated from leukopak from healthy donors; endogenous in cells
T1 sequence (P51684 1-374): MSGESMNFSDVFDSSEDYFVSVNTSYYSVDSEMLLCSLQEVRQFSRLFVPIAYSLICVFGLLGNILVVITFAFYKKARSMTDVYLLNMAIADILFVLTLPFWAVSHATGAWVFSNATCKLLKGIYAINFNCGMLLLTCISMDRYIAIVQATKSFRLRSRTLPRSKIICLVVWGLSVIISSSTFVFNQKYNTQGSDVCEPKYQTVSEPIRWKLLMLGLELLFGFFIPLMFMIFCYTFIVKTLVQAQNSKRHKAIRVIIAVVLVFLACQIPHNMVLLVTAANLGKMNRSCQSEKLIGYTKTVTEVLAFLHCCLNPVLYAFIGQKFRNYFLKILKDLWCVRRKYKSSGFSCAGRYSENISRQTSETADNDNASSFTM
Source text: Human CD4+CCR6+CXCR3-T cells were isolated from leukopak from healthy donors using EasySep™ Human Th17 Cell Enrichment Kit. […] Day 4 post activation, Dynabeads were removed from the culture. The activated T cells were maintained at 1-2×10^6 cells/mL for 15 days by feeding fresh growth media when needed.
For IC50 determination, the top and bottom of the chemotaxis chamber contained the same concentration of compound. DMSO was kept constant at 0.1% (v/v) in all wells. The final concentration of CCL20 (Peprotech 300-29A) in the bottom chamber is 0.5 nM. The fully assembled chemotaxis plate was placed in a cell culture incubator at 37° C., 5% CO2 for 1 h. After incubation, the top filter was removed, followed by a quick freeze of the bottom chamber at −80° C. for 1 h. The migrated cells in the bottom chamber were stained with CyQUANT dye (Life Technologies, C7026) for cell number determination.
IC50 values for compounds of the present invention (Table 11) were determined by the non-linear regression analysis of dose response curves.

CXCR2 = target: T2, CXCR2 (Homo sapiens, UniProt P25025); assay: Human Neutrophil Chemotaxis Assay; format: cell-based; set-up: Human neutrophils were purified from freshly drawn human whole blood; endogenous in cells; host or cells: primary human neutrophils from fresh whole blood; conditions: Table 12; human neutrophils migrating towards the CXCR2 ligand GROα; read-out: IC50
T2 sequence (P25025 1-360): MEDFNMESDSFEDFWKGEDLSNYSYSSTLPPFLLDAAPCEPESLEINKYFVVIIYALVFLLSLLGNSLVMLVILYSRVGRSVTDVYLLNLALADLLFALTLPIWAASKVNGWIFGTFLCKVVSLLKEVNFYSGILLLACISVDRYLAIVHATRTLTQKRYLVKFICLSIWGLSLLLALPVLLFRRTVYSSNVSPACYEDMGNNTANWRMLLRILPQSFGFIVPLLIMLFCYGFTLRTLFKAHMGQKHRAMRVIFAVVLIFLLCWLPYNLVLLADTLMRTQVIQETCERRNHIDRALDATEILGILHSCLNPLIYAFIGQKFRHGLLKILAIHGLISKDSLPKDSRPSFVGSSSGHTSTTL
Experimental: After 30 min, the labeled neutrophils were washed twice in chemotaxis buffer, resuspended as before and used immediately. For the assay, test compounds were tested in a dose-response format to determine IC50. Labeled neutrophils (50 μL) were pre-incubated with diluted test compound (50 μL) for 30 min in a 96-well plate (Greiner). Next, 100 μL of diluted compound was mixed with 100 μL of GROα (Peprotech #300-11, 2 nM) in the bottom portion of the chemotaxis chamber. The top portion (insert) of the chemotaxis system containing the FluoroBlok porous membrane was then assembled together. 50 μL of the pre-incubated neutrophils were added to the FluoroBlok insert (top portion) and chemotaxis measured by the neutrophils ability to migrate through the membrane towards the specific CXCR2 ligand, GROα.
IC50 values for compounds of the present invention (Table 12) were determined by the non-linear regression analysis of dose response curves.

SMILES: Cc1cn(C)nc1[C@H](Nc1c(Nc2ccnc(C(=O)N3CCOCC3)c2O)c(=O)c1=O)C1(C)CCCC1 [Example 6, (R)-3-(((1,4-dimethyl-1H-pyrazol-3-yl)(1-methylcyclopentyl)methyl)amino)-4-((3-hydroxy-2-(morpholine-4-carbonyl)pyridin-4-yl)amino)cyclobut-3-ene-1,2-dione]
- IC50 (CCR6): 11.6 nM
- T Cell Chemotaxis Selectivity (CCR6): 51
- IC50 (CXCR2): 586 nM

SMILES: Cc1cn(C)nc1[C@H](Nc1c(Nc2ccnc(C(=O)N3CCN(C)CC3)c2O)c(=O)c1=O)C1(C)CCCC1 [Example 7, (R)-3-(((1,4-Dimethyl-1H-pyrazol-3-yl)(1-methylcyclopentyl)methyl)amino)-4-((3-hydroxy-2-(4-methylpiperazine-1-carbonyl)pyridin-4-yl)amino)cyclobut-3-ene-1,2-dione]
- IC50 (CCR6): 29.8 nM
- T Cell Chemotaxis Selectivity (CCR6): 72
- IC50 (CXCR2): 2160 nM

SMILES: CN(C)C(=O)c1nccc(Nc2c(N[C@@H](c3nn(C)cc3Cl)C3(C)CCCC3)c(=O)c2=O)c1O [Example 8, (R)-4-((2-(((4-Chloro-1-methyl-1H-pyrazol-3-yl)(1-methylcyclopentyl)methyl)amino)-3,4-dioxocyclobut-1-en-1-yl)amino)-3-hydroxy-N,N-dimethylpicolinamide]
- IC50 (CCR6): 3 nM
- T Cell Chemotaxis Selectivity (CCR6): 34
- IC50 (CXCR2): 103 nM

SMILES: CN(C)C(=O)c1nccc(Nc2c(N[C@H](c3nn(C)cc3Cl)C3(C)CCCC3)c(=O)c2=O)c1O [Example 9, (S)-4-((2-(((4-Chloro-1-methyl-1H-pyrazol-3-yl)(1-methylcyclopentyl)methyl)amino)-3,4-dioxocyclobut-1-en-1-yl)amino)-3-hydroxy-N,N-dimethylpicolinamide]
- IC50 (CCR6): 59.7 nM
- T Cell Chemotaxis Selectivity (CCR6): 46
- IC50 (CXCR2): 2750 nM

SMILES: CC(C)N(C)C(=O)c1nccc(Nc2c(N[C@@H](c3nn(C)cc3Cl)C3(C)CCCC3)c(=O)c2=O)c1O [Example 10, (R)-4-((2-(((4-Chloro-1-methyl-1H-pyrazol-3-yl)(1-methylcyclopentyl)methyl)amino)-3,4-dioxocyclobut-1-en-1-yl)amino)-3-hydroxy-N-isopropyl-N-methylpicolinamide]
- IC50 (CCR6): 8.7 nM
- T Cell Chemotaxis Selectivity (CCR6): 20
- IC50 (CXCR2): 175 nM

SMILES: COc1cn(C)nc1[C@H](Nc1c(Nc2ccnc(C(=O)N(C)C(C)C)c2O)c(=O)c1=O)C1(C)CCCC1 [Example 11, (R)-3-Hydroxy-N-isopropyl-4-((2-(((4-methoxy-1-methyl-1H-pyrazol-3-yl)(1-methyl-cyclopentyl)methyl)amino)-3,4-dioxocyclobut-1-en-1-yl)amino)-N-methylpicolinamide]
- IC50 (CCR6): 1.9 nM
- T Cell Chemotaxis Selectivity (CCR6): 110
- IC50 (CXCR2): 210 nM

SMILES: COc1cn(C)nc1[C@H](Nc1c(Nc2ccnc(C(=O)N(C)C)c2O)c(=O)c1=O)C1(C)CCCC1 [Example 12, (R)-3-Hydroxy-4-((2-(((4-methoxy-1-methyl-1H-pyrazol-3-yl)(1-methylcyclopentyl)methyl)amino)-3,4-dioxocyclobut-1-en-1-yl)amino)-N,N-dimethylpicolinamide]
- IC50 (CCR6): 1.7 nM
- T Cell Chemotaxis Selectivity (CCR6): 63
- IC50 (CXCR2): 107 nM

SMILES: COc1cn(C)nc1[C@H](Nc1c(Nc2ccnc(C(=O)N(C)C)c2O)c(=O)c1=O)C(C)(C)C [Example 13, (R)-3-Hydroxy-4-((2-((1-(4-methoxy-1-methyl-1H-pyrazol-3-yl)-2,2-dimethylpropyl)amino)-3,4-dioxocyclobut-1-en-1-yl)amino)-N,N-dimethylpicolinamide]
- IC50 (CCR6): 5.4 nM
- T Cell Chemotaxis Selectivity (CCR6): 60
- IC50 (CXCR2): 328 nM

SMILES: COc1cn(C)nc1[C@H](Nc1c(Nc2ccnc(C(=O)N(C)C(C)C)c2O)c(=O)c1=O)C(C)(C)C [Example 14, (R)-3-Hydroxy-N-isopropyl-4-((2-((1-(4-methoxy-1-methyl-1H-pyrazol-3-yl)-2,2-dimethylpropyl)amino)-3,4-dioxocyclobut-1-en-1-yl)amino)-N-methylpicolinamide]
- IC50 (CCR6): 12.5 nM
- T Cell Chemotaxis Selectivity (CCR6): 22
- IC50 (CXCR2): 272 nM

SMILES: CN(C)C(=O)c1nccc(Nc2c(N[C@@H](c3nn(C)cc3OC(F)F)C3(C)CCCC3)c(=O)c2=O)c1O [Example 15, (R)-4-((2-(((4-(Difluoromethoxy)-1-methyl-1H-pyrazol-3-yl)(1-methylcyclopentyl)methyl)amino)-3,4-dioxocyclobut-1-en-1-yl)amino)-3-hydroxy-N,N-dimethylpicolinamide]
- IC50 (CCR6): 10.6 nM
- T Cell Chemotaxis Selectivity (CCR6): 69
- IC50 (CXCR2): 735 nM

SMILES: CN(C)C(=O)c1nccc(Nc2c(N[C@@H](c3nn(C)cc3C#N)C3(C)CCCC3)c(=O)c2=O)c1O [Example 16, (R)-4-((2-(((4-Cyano-1-methyl-1H-pyrazol-3-yl)(1-methylcyclopentyl)methyl)amino)-3,4-dioxocyclobut-1-en-1-yl)amino)-3-hydroxy-N,N-dimethylpicolinamide]
- IC50 (CCR6): 41.7 nM
- T Cell Chemotaxis Selectivity (CCR6): 104
- IC50 (CXCR2): 4350 nM

SMILES: CCc1cn(C)nc1[C@H](Nc1c(Nc2ccnc(C(=O)N(C)C)c2O)c(=O)c1=O)C1(C)CCCC1 [Example 18, (R)-4-((2-(((4-Ethyl-1-methyl-1H-pyrazol-3-yl)(1-methylcyclopentyl)methyl)amino)-3,4-dioxocyclobut-1-en-1-yl)amino)-3-hydroxy-N,N-dimethylpicolinamide]
- IC50 (CCR6): 3.3 nM
- T Cell Chemotaxis Selectivity (CCR6): 306
- IC50 (CXCR2): 1010 nM

SMILES: Cc1nc([C@H](Nc2c(Nc3ccnc(C(=O)N(C)C)c3O)c(=O)c2=O)C2(C)CC2)c(C)s1 [Example 19, (R)-4-((2-(((2,5-Dimethylthiazol-4-yl)(1-methylcyclopropyl)-methyl)amino)-3,4-dioxocyclobut-1-en-1-yl)amino)-3-hydroxy-N,N-dimethylpicolinamide]
- IC50 (CCR6): 70.6 nM
- T Cell Chemotaxis Selectivity (CCR6): 3
- IC50 (CXCR2): 197 nM

SMILES: Cc1cn(C)nc1[C@H](Nc1c(Nc2ccnc(C(=O)N(C)C)c2O)c(=O)c1=O)C1(C)CC1 [Example 20, (R)-4-((2-(((1,4-Dimethyl-1H-pyrazol-3-yl)(1-methylcyclopropyl)methyl)amino)-3,4-dioxocyclobut-1-en-1-yl)amino)-3-hydroxy-N,N-dimethylpicolinamide]
- IC50 (CCR6): 271 nM
- IC50 (CXCR2): 167 nM

SMILES: CCc1cn(C)nc1[C@H](Nc1c(Nc2ccnc(C(=O)N(C)C)c2O)c(=O)c1=O)C1(C)CC1 [Example 21, (R)-4-((2-(((4-Ethyl-1-methyl-1H-pyrazol-3-yl)(1-methylcyclopropyl)methyl)amino)-3,4-dioxocyclobut-1-en-1-yl)amino)-3-hydroxy-N,N-dimethylpicolinamide]
- IC50 (CCR6): 102 nM
- T Cell Chemotaxis Selectivity (CCR6): 3
- IC50 (CXCR2): 293 nM

SMILES: Cc1cn(C)nc1[C@H](Nc1c(Nc2ccnc(C(=O)N(C)C)c2O)c(=O)c1=O)C(C)(C)C [Example 22, (R)-4-((2-((1-(1,4-Dimethyl-1H-pyrazol-3-yl)-2,2-dimethylpropyl)amino)-3,4-dioxocyclobut-1-en-1-yl)amino)-3-hydroxy-N,N-dimethylpicolinamide]
- IC50 (CCR6): 7.4 nM
- T Cell Chemotaxis Selectivity (CCR6): 19
- IC50 (CXCR2): 141 nM

SMILES: Cc1cn(C)nc1[C@H](Nc1c(Nc2ccnc(C(=O)N(C)C)c2O)c(=O)c1=O)C1(C)CCC1 [Example 23, (R)-4-((2-(((1,4-Dimethyl-1H-pyrazol-3-yl)(1-methylcyclobutyl)methyl)amino)-3,4-dioxocyclobut-1-en-1-yl)amino)-3-hydroxy-N,N-dimethylpicolinamide]
- IC50 (CCR6): 16.5 nM
- T Cell Chemotaxis Selectivity (CCR6): 15
- IC50 (CXCR2): 248 nM
